Source: patent US9315520B2, “2-amino-6-methyl-4,4a,5,6-tetrahydropyrano[3,4-d][1,3]thiazin-8a(8H)-yl-1,3-thiazol-4-yl amides” (Pfizer Inc., priority 2014, dated 2016)
Structures can show the parent of a compound that is named as a salt.

molecular target: BACE1 (Homo sapiens (Human), UniProt P56817); assay: BACE1 Cell-Free Assay (fluorescence polarization); format: biochemical; details: geometric mean of 2-4 determinations unless otherwise indicated (b: ≧5; c: single determination); read-out: BACE1 Cell-free Assay IC50
Source text: This assay measures the inhibition of the beta-secretase enzyme as it cleaves a non-native peptide.
A synthetic APP substrate that can be cleaved by beta-secretase having N-terminal biotin and made fluorescent by the covalent attachment of Oregon Green at the Cys residue is used to assay beta-secretase activity in the presence or absence of the inhibitory compounds. […] The BACE1 enzyme is affinity purified material from conditioned media of CHO-K1 cells that have been transfected with a soluble BACE construct (BACE1deltaTM96His). […] Plates are covered and incubated for 3 hours at 37° C. […] The activity of the beta-secretase enzyme is detected by changes in the fluorescence polarization that occur when the substrate is cleaved by the enzyme.

BACE1, sequence (P56817 46-457): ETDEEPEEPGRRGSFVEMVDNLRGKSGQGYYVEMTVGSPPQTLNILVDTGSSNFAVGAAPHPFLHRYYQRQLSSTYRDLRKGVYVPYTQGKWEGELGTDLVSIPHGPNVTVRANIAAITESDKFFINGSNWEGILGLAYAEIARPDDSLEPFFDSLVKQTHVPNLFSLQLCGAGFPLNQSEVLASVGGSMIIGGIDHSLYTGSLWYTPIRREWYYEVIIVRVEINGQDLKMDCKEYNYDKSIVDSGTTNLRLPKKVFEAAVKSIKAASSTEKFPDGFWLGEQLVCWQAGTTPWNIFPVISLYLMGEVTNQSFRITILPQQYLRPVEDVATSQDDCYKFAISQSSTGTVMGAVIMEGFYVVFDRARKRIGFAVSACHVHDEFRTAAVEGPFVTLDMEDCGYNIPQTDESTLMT

For Cc1nc(C(=O)Nc2csc([C@]34CO[C@@H](C)C[C@H]3CSC(N)=N4)n2)no1 [Example 52, N-{2-[(4aR,6S,8aR)-2-amino-6-methyl-4,4a,5,6-tetrahydropyrano[3,4-d][1,3]thiazin-8a(8H)-yl]-1,3-thiazol-4-yl}-5-methyl-1,2,4-oxadiazole-3-carboxamide], which IC50 is on record?
Its IC50 is 91 nM.

For Cc1nc(C(=O)Nc2csc([C@]34CO[C@@H](C)C[C@H]3CSC(N)=N4)n2)c(C)o1 [Example 53, N-{2-[(4aR,6S,8aR)-2-amino-6-methyl-4,4a,5,6-tetrahydropyrano[3,4-d][1,3]thiazin-8a(8H)-yl]-1,3-thiazol-4-yl}-2,5-dimethyl-1,3-oxazole-4-carboxamide], which IC50 is on record?
The IC50 was 65 nM.

Which IC50 does the source give for C[C@H]1C[C@H]2CSC(N)=N[C@@]2(c2nc(NC(=O)c3cnc(OCC4CC4)cn3)cs2)CO1 [Example 54, N-{2-[(4aR,6S,8aR)-2-amino-6-methyl-4,4a,5,6-tetrahydropyrano[3,4-d][1,3]thiazin-8a(8H)-yl]-1,3-thiazol-4-yl}-5-(cyclopropylmethoxy)pyrazine-2-carboxamide] here?
Its IC50 is 161 nM.

For C[C@H]1C[C@H]2CSC(N)=N[C@@]2(c2nc(NC(=O)c3cnc(OC4CC4)cn3)cs2)CO1 [Example 55, N-{2-[(4aR,6S,8aR)-2-amino-6-methyl-4,4a,5,6-tetrahydropyrano[3,4-d][1,3]thiazin-8a(8H)-yl]-1,3-thiazol-4-yl}-5-(cyclopropyloxy)pyrazine-2-carboxamide], which IC50 is on record?
The IC50 was 519 nM.

For C[C@@H](F)COc1cnc(C(=O)Nc2csc([C@]34CO[C@@H](C)C[C@H]3CSC(N)=N4)n2)cn1 [Example 56, N-{2-[(4aR,6S,8aR)-2-amino-6-methyl-4,4a,5,6-tetrahydropyrano[3,4-d][1,3]thiazin-8a(8H)-yl]-1,3-thiazol-4-yl}-5-{[(2R)-2-fluoropropyl]oxy}pyrazine-2-carboxamide], which IC50 is on record?
The IC50 was 360 nM.

C[C@H](F)COc1cnc(C(=O)Nc2csc([C@]34CO[C@@H](C)C[C@H]3CSC(N)=N4)n2)cn1 [Example 57, N-{2-[(4aR,6S,8aR)-2-amino-6-methyl-4,4a,5,6-tetrahydropyrano[3,4-d][1,3]thiazin-8a(8H)-yl]-1,3-thiazol-4-yl}-5-{[(2S)-2-fluoropropyl]oxy}pyrazine-2-carboxamide] was tested. Which IC50 did it give?
Its IC50 is 372 nM.

Which IC50 does the source give for C[C@H]1C[C@H]2CSC(N)=N[C@@]2(c2nc(NC(=O)c3cnc(OCC(C)(F)F)cn3)cs2)CO1 [Example 58, N-{2-[(4aR,6S,8aR)-2-amino-6-methyl-4,4a,5,6-tetrahydropyrano[3,4-d][1,3]thiazin-8a(8H)-yl]-1,3-thiazol-4-yl}-5-(2,2-difluoropropoxy)pyrazine-2-carboxamide] here?
Its IC50 is 161 nM.

How did the IC50 turn out when Cc1nc(C)c(C(=O)Nc2csc([C@]34CO[C@@H](C)C[C@H]3CSC(N)=N4)n2)o1 [Example 59, N-{2-[(4aR,6S,8aR)-2-amino-6-methyl-4,4a,5,6-tetrahydropyrano[3,4-d][1,3]thiazin-8a(8H)-yl]-1,3-thiazol-4-yl}-2,4-dimethyl-1,3-oxazole-5-carboxamide, trifluoroacetate salt] was run?
Its IC50 is 740 nM.

For C[C@H]1C[C@H]2CSC(N)=N[C@@]2(c2nc(NC(=O)c3cn(C)nc3C(F)(F)F)cs2)CO1 [Example 60, N-{2-[(4aR,6S,8aR)-2-amino-6-methyl-4,4a,5,6-tetrahydropyrano[3,4-d][1,3]thiazin-8a(8H)-yl]-1,3-thiazol-4-yl}-1-methyl-3-(trifluoromethyl)-1H-pyrazole-4-carboxamide, trifluoroacetate salt], which IC50 is on record?
Its IC50 is 3840 nM.

For CC(C)n1cnc(C(=O)Nc2csc([C@]34CO[C@@H](C)C[C@H]3CSC(N)=N4)n2)c1 [Example 61, N-{2-[(4aR,6S,8aR)-2-amino-6-methyl-4,4a,5,6-tetrahydropyrano[3,4-d][1,3]thiazin-8a(8H)-yl]-1,3-thiazol-4-yl}-1-(propan-2-yl)-1H-imidazole-4-carboxamide, trifluoroacetate salt], which IC50 is on record?
Its IC50 is 1830 nM.
